One assay has as its target T1, PARP (Homo sapiens, UniProt P09874).
T1 construct: purchased Trevigen 4684-096-01 (enzyme); kit 4684-096-K HT
Kind of assay: PARP ELISA colorimetric assay of inhibition of PARP catalytic activity (IC50). The class given is biochemical. The following applies: pIC50=-log(IC50), IC50 in molar concentration; ELISA-based PARP kit, 10 minutes of catalysis. In short, it runs like this: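 Human PARP was added as a 0.1 nM solution to histone-coated wells with compound for a 10-min ambient preincubation. The reaction was started with 100 μM NAD+ solution plus activated DNA and run 10 min. PAR formation was detected by anti-PAR ELISA, colorimetric. IC50 came from a 12-point, 3-fold gradient fitted by nonlinear least squares to a Hill equation.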

In the next assay the test system is Jurkat cell line. The assay can be described thus: PARP cellular chemopotentiation assay (MTS cell viability with and without TMZ). Format: cell-based. The following applies: ratio of EC50 for inhibition of cell viability without and with 100 μM TMZ; Jurkat cells, 96 hours of treatment. In short, it runs like this:
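Jurkat cells, 10,000/well, pre-cultured 24 h, then treated 96 h with serial compound dilutions (0.5% DMSO) with or without 100 μM TMZ. Viability by MTS conversion (OD490), normalized to DMSO controls; EC50 from curve fits, PF50 = EC50 without TMZ / EC50 with TMZ.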

T1 sequence (P09874 whole entry): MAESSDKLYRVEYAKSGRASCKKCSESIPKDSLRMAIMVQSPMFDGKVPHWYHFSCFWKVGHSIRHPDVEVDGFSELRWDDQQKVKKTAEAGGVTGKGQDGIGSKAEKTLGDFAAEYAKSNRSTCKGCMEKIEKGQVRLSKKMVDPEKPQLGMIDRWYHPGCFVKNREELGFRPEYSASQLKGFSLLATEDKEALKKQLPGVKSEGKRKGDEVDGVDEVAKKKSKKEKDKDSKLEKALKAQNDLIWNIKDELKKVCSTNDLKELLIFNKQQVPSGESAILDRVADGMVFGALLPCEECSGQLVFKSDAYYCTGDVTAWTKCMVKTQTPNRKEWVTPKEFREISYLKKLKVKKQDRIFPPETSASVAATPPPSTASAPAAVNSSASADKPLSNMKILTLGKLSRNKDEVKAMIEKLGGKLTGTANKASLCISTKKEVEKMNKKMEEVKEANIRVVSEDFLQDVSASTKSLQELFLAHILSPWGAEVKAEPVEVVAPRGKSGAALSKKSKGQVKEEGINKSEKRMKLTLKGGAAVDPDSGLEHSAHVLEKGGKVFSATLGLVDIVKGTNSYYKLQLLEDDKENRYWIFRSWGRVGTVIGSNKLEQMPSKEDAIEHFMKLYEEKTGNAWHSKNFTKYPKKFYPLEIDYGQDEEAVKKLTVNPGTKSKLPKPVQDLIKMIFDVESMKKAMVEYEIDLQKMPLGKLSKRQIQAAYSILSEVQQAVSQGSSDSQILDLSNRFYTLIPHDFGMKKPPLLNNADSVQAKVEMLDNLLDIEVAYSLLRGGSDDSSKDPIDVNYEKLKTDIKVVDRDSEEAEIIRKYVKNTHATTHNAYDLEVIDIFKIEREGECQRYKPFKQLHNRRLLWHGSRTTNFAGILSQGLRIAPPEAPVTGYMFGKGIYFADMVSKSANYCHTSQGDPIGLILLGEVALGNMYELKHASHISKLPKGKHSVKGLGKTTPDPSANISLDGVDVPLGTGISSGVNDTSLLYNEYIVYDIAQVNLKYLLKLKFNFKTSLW

As to `O=C(NC1CC1)c1ccc(N2CCN(Cc3cnc4c(c3)NC(=O)[C@@H]3CCCCN43)CC2)c(Cl)c1` [Compound 117, (S)-3-chloro-N-cyclopropyl-4-(4-((6-oxo-6,6a,7,8,9,10-hexahydro-5H-dipyrido[1,2-a:3′,2′-e]pyrazin-3-yl)methyl)piperazin-1-yl)benzamide], the IC50 against PARP is 15.8 to 39.8 nM. In the assay on Jurkat cell line, the PF50 is given as over 5000.

The molecule `N#Cc1ccc(N2CCN(Cc3cnc4c(c3)NC(=O)[C@@H]3CCCN43)CC2)cn1` [Compound 123, (S)-5-(4-((6-oxo-5,6,6a,7,8,9-hexahydropyrido[3,2-e]pyrrolo[1,2-a]pyrazin-3-yl)methyl)piperazin-1-yl)picolinonitrile] showed an IC50 against PARP of 15.8 to 39.8 nM. Also, in the assay with Jurkat cell line, the PF50 is recorded as over 10.

On to `Cc1cc(F)ccc1N1CCN(Cc2cnc3c(c2)NC(=O)[C@@H]2CCCN32)CC1` [Compound 130, (S)-3-((4-(4-fluoro-2-methylphenyl)piperazin-1-yl)methyl)-6a,7,8,9-tetrahydropyrido[3,2-e]pyrrolo[1,2-a]pyrazin-6(5H)-one], for which the IC50 against PARP was 15.8 to 39.8 nM. Further, in the assay with Jurkat cell line, the PF50 was over 2000.

As for `CNC(=O)c1ccc(N2CCN(Cc3cnc4c(c3)NC(=O)[C@@H]3CCCCN43)CC2)c(Cl)c1` [Compound 111, (S)-3-chloro-N-methyl-4-(4-((6-oxo-6,6a,7,8,9,10-hexahydro-5H-dipyrido[1,2-a:3′,2′-e]pyrazin-3-yl)methyl)piperazin-1-yl)benzamide], at PARP, the IC50 is 15.8 to 39.8 nM. Also, in the assay on Jurkat cell line, the PF50 was over 5000.

`N#Cc1ccc(N2CCN(Cc3cnc4c(c3)NC(=O)[C@@H]3CCCCN43)CC2)nc1` [Compound 72, (S)-6-(4-((6-oxo-6,6a,7,8,9,10-hexahydro-5H-dipyrido[1,2-a:3′,2′-e]pyrazin-3-yl)methyl)piperazin-1-yl)nicotinonitrile] showed a 50% inhibitory concentration (IC50) at PARP of at most 12.6 nM. Also, in the assay with Jurkat cell line, the PF50 was over 500.

In the case of `O=C1Nc2cc(CN3CC=C(c4ccc(Cl)cc4)CC3)cnc2N2CCCC[C@@H]12` [Compound 68, (S)-3-((4-(4-chlorophenyl)-5,6-dihydropyridin-1(2H)-yl)methyl)-7,8,9,10-tetrahydro-5H-dipyrido[1,2-a:3′,2′-e]pyrazin-6(6aH)-one], at PARP, the IC50 was at most 12.6 nM. Further, the PF50 in the assay on Jurkat cell line is on record as over 5000.

Regarding `CCNC(=O)c1ccc(N2CCN(Cc3cnc4c(c3)NC(=O)[C@@H]3CSCCN43)CC2)c(F)c1` [Compound 106, (R)—N-ethyl-3-fluoro-4-(4-((6-oxo-5,6,6a,7,9,10-hexahydropyrido[3,2-e][1,4]thiazino[4,3-a]pyrazin-3-yl)methyl)piperazin-1-yl)benzamide], at PARP, the IC50 is at most 12.6 nM. In addition, the PF50 in the assay with Jurkat cell line was over 5000.

On to `CNC(=O)c1ccc(N2CCN(Cc3cnc4c(c3)NC(=O)[C@@H]3CCCN43)CC2)c(Cl)c1` [Compound 136, (S)-3-chloro-N-methyl-4-(4-((6-oxo-5,6,6a,7,8,9-hexahydropyrido[3,2-e]pyrrolo[1,2-a]pyrazin-3-yl)methyl)piperazin-1-yl)benzamide], for which the IC50 against PARP is at most 12.6 nM. Moreover, the PF50 with Jurkat cell line is over 5000.

In the case of `CCNC(=O)c1ccc(N2CCN(Cc3cnc4c(c3)NC(=O)[C@@H]3CSCCN43)CC2)c(Cl)c1` [Compound 107, (R)-3-chloro-N-ethyl-4-(4-((6-oxo-5,6,6a,7,9,10-hexahydropyrido[3,2-e][1,4]thiazino[4,3-a]pyrazin-3-yl)methyl)piperazin-1-yl)benzamide], on PARP, the IC50 was 15.8 to 39.8 nM. The PF50 with Jurkat cell line is given as over 2000.

Take `O=C(NC1CC1)c1ccc(N2CCN(Cc3cnc4c(c3)NC(=O)[C@@H]3CCCN43)CC2)c(Cl)c1` [Compound 134, (S)-3-chloro-N-cyclopropyl-4-(4-((6-oxo-5,6,6a,7,8,9-hexahydropyrido[3,2-e]pyrrolo[1,2-a]pyrazin-3-yl)methyl)piperazin-1-yl)benzamide]: the concentration for half-maximal inhibition (IC50) at PARP was 15.8 to 39.8 nM. Moreover, the PF50 in the assay with Jurkat cell line was over 5000.

The molecule `CNC(=O)c1ccc(N2CCN(Cc3cnc4c(c3)NC(=O)[C@@H]3CCCCN43)CC2)c(C)c1` [Compound 113, (S)—N,3-dimethyl-4-(4-((6-oxo-6,6a,7,8,9,10-hexahydro-5H-dipyrido[1,2-a:3′,2′-e]pyrazin-3-yl)methyl)piperazin-1-yl)benzamide] showed an IC50 against PARP of at least 50.1 nM. Besides, in the assay with Jurkat cell line, the PF50 is on record as over 2000.

Consider `CCNC(=O)c1ccc(N2CCN(Cc3cnc4c(c3)NC(=O)[C@@H]3CCCCN43)CC2)c(C)c1` [Compound 114, (S)—N-ethyl-3-methyl-4-(4-((6-oxo-6,6a,7,8,9,10-hexahydro-5H-dipyrido[1,2-a:3′,2′-e]pyrazin-3-yl)methyl)piperazin-1-yl)benzamide], for which the IC50 against PARP is at least 50.1 nM. The PF50 in the assay on Jurkat cell line was over 2000.

Regarding `CC1CN(c2ccccn2)CCN1Cc1cnc2c(c1)NC(=O)[C@@H]1CCCN21` (stereo partly drawn) [Compound 120, (6aS)-3-((2-methyl-4-(pyridin-2-yl)piperazin-1-yl)methyl)-6a,7,8,9-tetrahydropyrido[3,2-e]pyrrolo[1,2-a]pyrazin-6(5H)-one], the half-inhibitory concentration (IC50) on PARP was at least 50.1 nM. For the same molecule, the PF50 entry in the assay on Jurkat cell line is on record as “≧0”.

Molecule `CC(C)N1CC(=O)Nc2cc(CN3CCN(c4ccc(Cl)cc4)CC3)cnc21` [Compound 95, 7-((4-(4-chlorophenyl)piperazin-1-yl)methyl)-4-isopropyl-3,4-dihydropyrido[2,3-b]pyrazin-2(1H)-one] had an IC50 on PARP of at least 50.1 nM. The PF50 entry in the assay with Jurkat cell line is reported as “≧0”.

Regarding `CNC(=O)c1ccc(N2CCN(Cc3cnc4c(c3)NC(=O)[C@@H]3CCCCN43)CC2)nc1` [Compound 77, (S)—N-methyl-6-(4-((6-oxo-6,6a,7,8,9,10-hexahydro-5H-dipyrido[1,2-a:3′,2′-e]pyrazin-3-yl)methyl)piperazin-1-yl)nicotinamide], the IC50 at PARP was 15.8 to 39.8 nM. In addition, the PF50 in the assay on Jurkat cell line was over 10.

For the molecule `O=C1Nc2cc(CN3CCN(c4ccc(Br)cc4)CC3)cnc2N2CCC[C@@H]12` [Compound 37, (S)-3-((4-(4-bromophenyl)piperazin-1-yl)methyl)-6a,7,8,9-tetrahydropyrido[3,2-e]pyrrolo[1,2-a]pyrazin-6(5H)-one], the IC50 against PARP was at least 50.1 nM. In the assay on Jurkat cell line, the PF50 is over 2000.

As to `COc1cc(C#N)ccc1N1CCN(Cc2cnc3c(c2)NC(=O)[C@@H]2CCCCN32)CC1` [Compound 118, (S)-3-methoxy-4-(4-((6-oxo-6,6a,7,8,9,10-hexahydro-5H-dipyrido[1,2-a:3′,2′-e]pyrazin-3-yl)methyl)piperazin-1-yl)benzonitrile], the 50% inhibitory concentration (IC50) on PARP was at most 12.6 nM. The PF50 with Jurkat cell line was over 5000.

On PARP, `O=C1Nc2cc(CN3CCN(c4ccc(Cl)c(F)c4)CC3)cnc2N2CCC[C@@H]12` [Compound 47, (S)-3-((4-(4-chloro-3-fluorophenyl)piperazin-1-yl)methyl)-6a,7,8,9-tetrahydropyrido[3,2-e]pyrrolo[1,2-a]pyrazin-6(5H)-one] gave a half-maximal inhibitory concentration (IC50) of at least 50.1 nM. Besides, the PF50 with Jurkat cell line is reported as over 10.

For the molecule `CC(C)NC(=O)c1ccc(N2CCN(Cc3cnc4c(c3)NC(=O)[C@@H]3CCCN43)CC2)c(Cl)c1` [Compound 135, (S)-3-chloro-N-isopropyl-4-(4-((6-oxo-5,6,6a,7,8,9-hexahydropyrido[3,2-e]pyrrolo[1,2-a]pyrazin-3-yl)methyl)piperazin-1-yl)benzamide], the half-maximal inhibitory concentration (IC50) at PARP was 15.8 to 39.8 nM. Moreover, the PF50 with Jurkat cell line is given as over 5000.
